Measurements as given in ChEMBL document CHEMBL1148505, “Inhibition of Plasmodium falciparum fatty acid biosynthesis: evaluation of FabG, FabZ, and FabI as drug targets for flavonoids” (J Med Chem, 2006).
pIC50, pKi: −log10 of the molar value. The source made the active and inactive calls. The rule behind the calls is not given here.

Columns and labels:
[1] = molecular target: T1, Fatty acid synthase (Plasmodium falciparum, UniProt Q965D7); test: Inhibition of FabZ
T1 sequence (Q965D7 whole entry): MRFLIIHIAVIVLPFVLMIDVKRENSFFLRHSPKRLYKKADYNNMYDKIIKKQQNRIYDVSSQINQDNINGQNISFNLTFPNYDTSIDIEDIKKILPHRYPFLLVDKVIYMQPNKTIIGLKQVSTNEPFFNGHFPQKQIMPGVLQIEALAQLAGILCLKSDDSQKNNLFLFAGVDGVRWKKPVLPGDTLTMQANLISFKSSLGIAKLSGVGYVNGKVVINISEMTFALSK

[2] = test system: Plasmodium falciparum; test: Antiplasmodial activity against chloroquine-sensitive Plasmodium falciparum NF54; assay type: functional, organism-based
[3] = molecular target: T2, Enoyl-acyl-carrier protein reductase (Plasmodium falciparum) (UniProt Q965D5); test: Inhibition of FabI at 100 uM
T2 sequence (whole entry): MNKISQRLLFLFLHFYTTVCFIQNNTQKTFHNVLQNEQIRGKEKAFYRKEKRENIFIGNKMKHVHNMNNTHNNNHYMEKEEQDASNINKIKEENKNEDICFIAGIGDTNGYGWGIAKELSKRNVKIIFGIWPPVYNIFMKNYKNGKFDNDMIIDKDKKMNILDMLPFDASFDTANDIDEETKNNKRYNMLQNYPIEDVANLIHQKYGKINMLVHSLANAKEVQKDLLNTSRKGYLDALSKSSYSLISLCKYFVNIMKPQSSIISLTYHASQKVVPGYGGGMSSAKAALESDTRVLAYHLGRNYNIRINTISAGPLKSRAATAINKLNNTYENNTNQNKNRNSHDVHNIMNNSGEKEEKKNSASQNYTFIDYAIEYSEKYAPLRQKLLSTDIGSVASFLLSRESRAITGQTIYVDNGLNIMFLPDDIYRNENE

[4] = molecular target: T3, 3-oxoacyl-acyl-carrier protein reductase (Plasmodium falciparum) (UniProt Q965D6); test: Inhibition of FabG at 100 uM
T3 sequence (whole entry): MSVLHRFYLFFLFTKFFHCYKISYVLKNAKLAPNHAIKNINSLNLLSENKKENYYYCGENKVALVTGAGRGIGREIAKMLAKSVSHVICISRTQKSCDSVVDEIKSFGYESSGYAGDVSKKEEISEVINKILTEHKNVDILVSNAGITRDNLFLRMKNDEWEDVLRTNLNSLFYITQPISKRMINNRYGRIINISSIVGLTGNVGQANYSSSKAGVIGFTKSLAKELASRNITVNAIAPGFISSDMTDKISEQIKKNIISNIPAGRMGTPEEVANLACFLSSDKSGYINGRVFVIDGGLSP

[5] = molecular target: T4, Fatty acid synthase (Plasmodium falciparum) (UniProt Q965D7); test: Inhibition of FabZ at 100 uM
T4 sequence (whole entry): T1 sequence (Q965D7 whole entry)

[6] = molecular target: T5, Enoyl-acyl-carrier protein reductase (Plasmodium falciparum, UniProt Q965D5); test: Inhibition of FabI
T5 sequence (Q965D5 whole entry): T2 sequence (whole entry)

[7] = molecular target: T6, 3-oxoacyl-acyl-carrier protein reductase (Plasmodium falciparum, UniProt Q965D6); test: Inhibition of FabG
T6 sequence (Q965D6 whole entry): T3 sequence (whole entry)

[8] = test system: Plasmodium falciparum; test: Antiplasmodial activity against chloroquine-resistant Plasmodium falciparum K1; assay type: functional, organism-based
[9] = molecular target: T6, 3-oxoacyl-acyl-carrier protein reductase; test: Inhibition of FabG in presence of acetoacetyl-CoA
[10] = molecular target: T6, 3-oxoacyl-acyl-carrier protein reductase; test: Inhibition of FabG in presence of NADPH

| Structure (SMILES) | pIC50 [1] | pIC50 [2] | Activity [3] | Activity [4] | Activity [5] | pIC50 [6] | pKi [1] | pKi [6] | pIC50 [7] | pIC50 [8] | pKi [9] | pKi [10] |
| --- | --- | --- | --- | --- | --- | --- | --- | --- | --- | --- | --- | --- |
| COc1cc(OC)c2c(c1C)O[C@H](c1ccccc1)CC2=O | 4.40 | 4.70 | inactive | inactive |  |  |  |  |  |  |  |  |
| O=c1c(O)c(-c2ccccc2)oc2ccc(O)cc12 |  | 4.44 | inactive | inactive | inactive |  |  |  |  |  |  |  |
| COc1cc2c(c(O)c1OC)C(=O)C[C@@H](c1ccc(O)cc1)O2 |  | 5.06 | inactive | inactive | inactive |  |  |  |  |  |  |  |
| COc1ccc2c(=O)cc(-c3ccccc3)oc2c1OC |  | 4.39 | inactive | inactive | inactive |  |  |  |  |  |  |  |
| O=c1c(O)c(-c2ccccc2)oc2cc(O)ccc12 [3,7-DIHYDROXYFLAVONE] |  | 4.31 |  | inactive | inactive | 5.00 |  |  |  |  |  |  |
| O=c1cc(-c2ccccc2)oc2cccc(O)c12 [5-HYDROXYFLAVONE] |  | 4.18 | inactive | inactive | inactive |  |  |  |  |  |  |  |
| O=c1cc(-c2ccccc2)oc2ccc(O)cc12 [6-HYDROXYFLAVONE] | 4.52 | 5.28 | inactive | inactive |  |  |  |  |  |  |  |  |
| O=c1cc(-c2ccccc2)oc2cc(O)ccc12 [7-HYDROXYFLAVONE] | 4.70 | 4.18 | inactive | inactive |  |  |  |  |  |  |  |  |
| Oc1cc(O)c2c(c1)O[C@@H](c1ccc(O)c(O)c1)[C@@H](O)C2 [(+)-EPICATECHIN] |  | < 3.82 | inactive | inactive | inactive |  |  |  |  |  |  |  |
| O=C(O[C@@H]1Cc2c(O)cc(O)cc2O[C@H]1c1ccc(O)c(O)c1)c1cc(O)c(O)c(O)c1 [(-)-CATECHINGALLATE] | 6.40 | 5.49 |  |  |  | 6.52 | 5.55 | 7.40 | 6.00 | 6.40 | 5.19 | 5.55 |
| Oc1cc(O)c2c(c1)O[C@@H](c1ccc(O)c(O)c1)[C@H](O)C2 [(-)-CATECHIN] |  | < 3.82 | inactive | inactive | inactive |  |  |  |  |  |  |  |
| Oc1cc(O)c2c(c1)O[C@H](c1ccc(O)c(O)c1)[C@H](O)C2 [(-)-EPICATECHIN] |  | < 3.82 | inactive | inactive | inactive |  |  |  |  |  |  |  |
| Oc1cc(O)c2c(c1)O[C@@H](c1cc(O)c(O)c(O)c1)[C@H](O)C2 [(-)-GALLOCATECHIN] |  | < 3.82 | inactive | inactive | inactive |  |  |  |  |  |  |  |
| O=c1cc(-c2ccc(O)cc2)oc2cc(O)cc(O)c12 [APIGENIN] |  | 4.76 |  | inactive | inactive | 4.30 |  |  |  |  |  |  |
| COc1ccc(-c2coc3cc(O)cc(O)c3c2=O)cc1 [BIOCHANIN] | 5.10 | 4.46 | inactive | inactive |  |  |  |  |  |  |  |  |
| O=c1cc(-c2ccccc2)oc2cc(O)cc(O)c12 [CHRYSIN] |  | 4.53 | inactive |  | inactive |  |  |  | 5.00 |  |  |  |
| Oc1cc(O)c2c(c1)O[C@H](c1ccc(O)c(O)c1)[C@@H](O)C2 [CIANIDANOL] |  | 3.84 | inactive | inactive | inactive |  |  |  |  |  |  |  |
| COc1cc2oc(-c3ccc(O)cc3)cc(=O)c2c(O)c1OC [CIRSIMARITIN] |  | 4.77 | inactive |  | inactive |  |  |  | 4.15 |  |  |  |
| O=c1c(-c2ccc(O)cc2)coc2cc(O)ccc12 [DAIDZEIN] | 4.52 | 3.98 | inactive | inactive |  |  |  |  |  |  |  |  |

| Structure (SMILES) | pIC50 [1] | pIC50 [2] | Activity [3] | Activity [4] | Activity [5] | pIC50 [6] | pKi [1] | pKi [6] | pIC50 [7] | pIC50 [8] | pKi [9] | pKi [10] |
| --- | --- | --- | --- | --- | --- | --- | --- | --- | --- | --- | --- | --- |
| O=C(O[C@@H]1Cc2c(O)cc(O)cc2O[C@@H]1c1ccc(O)c(O)c1)c1cc(O)c(O)c(O)c1 [EPICATECHIN GALLATE] | 6.40 | 4.40 |  |  |  | 6.70 |  |  | 6.00 | 4.95 |  |  |
| Oc1cc(O)c2c(c1)O[C@H](c1cc(O)c(O)c(O)c1)[C@H](O)C2 [EPIGALLOCATECHIN] |  | < 3.82 | inactive | inactive | inactive |  |  |  |  |  |  |  |
| O=C(O[C@@H]1Cc2c(O)cc(O)cc2O[C@@H]1c1cc(O)c(O)c(O)c1)c1cc(O)c(O)c(O)c1 [EPIGALOCATECHIN GALLATE] | 6.40 | 4.59 |  |  |  | 6.70 |  |  |  | 5.00 |  |  |
| O=c1c(O)c(-c2ccc(O)c(O)c2)oc2cc(O)ccc12 [FISETIN] | 5.70 | 5.09 |  |  |  | 6.00 |  |  | 5.39 | 5.19 |  |  |
| O=c1cc(-c2ccccc2)oc2ccccc12 [FLAVONE] |  | 4.22 | inactive | inactive | inactive |  |  |  |  |  |  |  |
| O=c1c(O)c(-c2ccccc2)oc2ccccc12 [FLAVONOL] |  | 4.62 | inactive | inactive | inactive |  |  |  |  |  |  |  |
| O=c1c(O)c(-c2ccccc2)oc2cc(O)cc(O)c12 [GALANGIN] |  | 4.40 | inactive |  | inactive |  |  |  | 4.00 |  |  |  |
| O=C(O[C@@H]1Cc2c(O)cc(O)cc2O[C@H]1c1cc(O)c(O)c(O)c1)c1cc(O)c(O)c(O)c1 [GALLOCATECHIN GALLATE] | 6.22 | 4.40 |  |  |  | 6.30 |  |  |  | 5.21 |  |  |
| O=c1c(-c2ccc(O)cc2)coc2cc(O)cc(O)c12 [GENISTEIN] | 5.15 | 4.42 | inactive | inactive |  |  |  |  |  |  |  |  |
| COc1cc(O)c2c(=O)cc(-c3ccc(O)cc3)oc2c1 [GENKWANIN] |  | 3.95 | inactive | inactive | inactive |  |  |  |  |  |  |  |
| COc1cc(-c2oc3cc(O)cc(O)c3c(=O)c2O)ccc1O [ISORHAMNETIN] |  | 4.83 |  |  | inactive | 5.30 |  |  | 5.08 |  |  |  |
| O=c1c(O)c(-c2ccc(O)cc2)oc2cc(O)cc(O)c12 [KAEMPFEROL] |  | 4.52 |  |  | inactive | 4.70 |  |  | 5.40 |  |  |  |
| COc1ccc(-c2cc(=O)c3c(O)c(O)c(OC)cc3o2)cc1 [LADANEIN] |  | 5.05 | inactive | inactive | inactive |  |  |  |  |  |  |  |
| O=c1cc(-c2ccc(O)c(O)c2)oc2cc(O)cc(O)c12 [LUTEOLIN] | 5.30 | 4.97 |  |  |  | 5.70 | 4.94 | 5.68 | 5.40 | 5.02 | 5.74 | 6.10 |
| O=c1c(O)c(-c2ccc(O)cc2O)oc2cc(O)cc(O)c12 [MORIN] | 5.10 | 3.96 |  |  |  | 5.30 |  |  | 5.64 | 4.79 |  |  |
| O=c1c(O)c(-c2cc(O)c(O)c(O)c2)oc2cc(O)cc(O)c12 [MYRICETIN] | 5.70 | 4.24 |  |  |  | 6.40 |  |  | 4.85 | 4.89 |  |  |
| O=C1C[C@@H](c2ccc(O)cc2)Oc2cc(O)cc(O)c21 [NARINGENIN] |  | 3.85 | inactive | Active | inactive |  |  |  |  |  |  |  |
| O=c1c(O)c(-c2ccc(O)c(O)c2)oc2cc(O)cc(O)c12 [QUERCETIN] | 5.82 | 5.00 |  |  |  | 5.82 |  |  | 5.27 | 5.05 |  |  |
| COc1cc(O)c2c(=O)c(OC)c(-c3ccc(OC)c(OC)c3)oc2c1 [RETUSIN] |  | 4.13 | inactive | inactive | inactive |  |  |  |  |  |  |  |
